The source made the active and inactive calls.
Columns and labels:
Mus musculus [1] = test: Anti-colitis activity against DSS-induced C57BL/6 mouse model of subchronic relapsing colitis assessed as effect on body weight at 0.15 mg/kg, po administered once daily for 14 days starting from day 5 post DSS-challenge cotreated with 20 mg/kg berberine and measured after day 12 to day 18; type: functional, organism-based
Mus musculus [2] = test: Anti-colitis activity against DSS-induced C57BL/6 mouse model of subchronic relapsing colitis assessed as reduction in stool bleeding scores at 0.3 mg/kg, po administered once daily for 14 days starting from day 5 post DSS challenge and measured on day 19; type: functional, organism-based
Mus musculus [3] = test: Anti-colitis activity against DSS-induced C57BL/6 mouse model of subchronic relapsing colitis assessed as reduction in stool bleeding score at 0.15 mg/kg, po administered once daily for 14 days starting from day 5 post DSS-challenge cotreated with 20 mg/kg berberine and measured after day 12 to day 18; type: functional, organism-based
Mus musculus [4] = test: Anti-colitis activity against DSS-induced C57BL/6 mouse model of subchronic relapsing colitis assessed as reduction in colon swelling at 0.3 mg/kg, po administered once daily for 14 days starting from day 5 post DSS-challenge; type: functional, organism-based
Mus musculus [5] = test: Anti-colitis activity against DSS-induced C57BL/6 mouse model of subchronic relapsing colitis assessed as reduction in spleen swelling at 0.3 mg/kg, po administered once daily for 14 days starting from day 5 post DSS-challenge; type: functional, organism-based
Mus musculus [6] = test: Anti-colitis activity against DSS-induced C57BL/6 mouse model of subchronic relapsing colitis assessed as reduction in spleen swelling at 0.15 mg/kg, po administered once daily for 14 days starting from day 5 post DSS-challenge cotreated with 20 mg/kg berberine and measured after day 12 to day 18; type: functional, organism-based
Mus musculus [7] = test: Anti-colitis activity against DSS-induced C57BL/6 mouse model of chronic relapsing colitis assessed as reduction in stool consistency score at 0.3 mg/kg, po administered once daily for 30 days starting from day 13 post DSS-challenge measured on day 24; type: functional, organism-based
Mus musculus [8] = test: Anti-colitis activity against DSS-induced C57BL/6 mouse model of chronic relapsing colitis assessed as reduction in stool bleeding at 0.15 mg/kg, po administered once daily for 30 days starting from day 13 post DSS-challenge cotreated with 20 mg/kg berberine and measured on day 43; type: functional, organism-based
Mus musculus [9] = test: Anti-colitis activity against DSS-induced C57BL/6 mouse model of chronic relapsing colitis assessed as reduction in disease activity index at 0.15 mg/kg, po administered once daily for 30 days starting from day 13 post DSS-challenge cotreated with 20 mg/kg berberine and measured on day 43; type: functional, organism-based
Mus musculus [10] = test: Anti-colitis activity against DSS-induced C57BL/6 mouse model of subchronic relapsing colitis assessed as reversal of DSS-induced colon shortening at 0.15 mg/kg, po administered once daily for 30 days starting from day 13 post DSS-challenge cotreated with 20 mg/kg berberine; type: functional, organism-based
Mus musculus [11] = test: Anti-colitis activity against DSS-induced C57BL/6 mouse model of subchronic relapsing colitis assessed as reduction in DSS-induced colon swelling at 0.3 mg/kg, po administered once daily for 30 days starting from day 13 post DSS-challenge; type: functional, organism-based
Mus musculus [12] = test: Anti-colitis activity against DSS-induced C57BL/6 mouse model of subchronic relapsing colitis assessed as reduction in DSS-induced colon swelling at 0.15 mg/kg, po administered once daily for 30 days starting from day 13 post DSS-challenge cotreated with 20 mg/kg berberine; type: functional, organism-based
Mus musculus [13] = test: Anti-colitis activity against DSS-induced C57BL/6 mouse model of chronic relapsing colitis assessed as reduction in DSS-induced spleen swelling at 0.15 mg/kg, po administered once daily for 30 days starting from day 13 post DSS-challenge cotreated with 20 mg/kg berberine; type: functional, organism-based
Mus musculus [14] = test: Anti-colitis activity against DSS-induced C57BL/6 mouse model of chronic relapsing colitis assessed as reduction in DSS-induced loss of colon crypt and columnar epithelium at 0.15 mg/kg, po administered once daily for 30 days starting from day 13 post DSS-challenge cotreated with 20 mg/kg berberine by hematoxylin and eosin staining based light microscopic analysis; type: functional, organism-based
Mus musculus [15] = test: Anti-colitis activity against DSS-induced C57BL/6 mouse model of chronic relapsing colitis assessed as reduction in DSS-induced inflammatory cell infiltration in colon at 0.15 mg/kg, po administered once daily for 30 days starting from day 13 post DSS-challenge cotreated with 20 mg/kg berberine; type: functional, organism-based
[16] = Toxicity in DSS-induced C57BL/6 mouse model of chronic relapsing colitis assessed as induction of abnormalities in liver at 0.3 mg/kg, po administered once daily for 30 days starting from day 13 post DSS-challenge by hematoxylin and eosin staining based light microscopic analysis; type: organism-based; details: in vivo, 720 h
[17] = Toxicity in DSS-induced C57BL/6 mouse model of chronic relapsing colitis assessed as induction of abnormalities in brain at 0.3 mg/kg, po administered once daily for 30 days starting from day 13 post DSS-challenge by hematoxylin and eosin staining based light microscopic analysis; type: organism-based; details: in vivo, 720 h
[18] = Toxicity in DSS-induced C57BL/6 mouse model of chronic relapsing colitis assessed as induction of abnormalities in heart at 0.15 mg/kg, po administered once daily for 30 days starting from day 13 post DSS-challenge cotreated with 20 mg/kg berberine by hematoxylin and eosin staining based light microscopic analysis; type: organism-based; details: in vivo, 720 h
Mus musculus [19] = test: Antiinflammatory activity against DSS-induced C57BL/6 mouse model of subchronic relapsing colitis assessed as reduction in IL17 mRNA level at 0.3 mg/kg, po administered once daily for 14 days starting from day 5 post DSS-challenge by RT-qPCR analysis; type: functional, organism-based
Mus musculus [20] = test: Antiinflammatory activity against DSS-induced C57BL/6 mouse model of subchronic relapsing colitis assessed as reduction in IL17 mRNA level at 0.15 mg/kg, po administered once daily for 14 days starting from day 5 post DSS-challenge cotreated with 20 mg/kg berberine by RT-qPCR analysis; type: functional, organism-based
Mus musculus [21] = test: Antiinflammatory activity against DSS-induced C57BL/6 mouse model of subchronic relapsing colitis assessed as reduction in IL6 mRNA level at 0.15 mg/kg, po administered once daily for 14 days starting from day 5 post DSS-challenge cotreated with 20 mg/kg berberine by RT-qPCR analysis; type: functional, organism-based
Mus musculus [22] = test: Effect on total STAT3 expression in DSS-induced C57BL/6 mouse model of subchronic relapsing colitis at 0.3 mg/kg, po administered once daily for 14 days starting from day 5 post DSS-challenge by Western blot analysis; type: ADME, organism-based; details: in vivo, 336 h
THP-1 = test: Antiinflammatory activity in human THP1 cells assessed as reduction in LPS-induced TNFalpha mRNA level at 0.5 uM cotreated with 0.5 uM berberine incubated for 1 hr followed by LPS challenge and measured after 4 to 6 hrs by q-PCR method; type: functional, cell-based
[23] = biological target: Signal transducer and activator of transcription 3 (Homo sapiens) (UniProt P40763); test: Inhibition of STAT3 activation in human THP1 cells assessed as reduction in LPS-induced phosphorylated STAT3 expression at 1 uM incubated for 1 hr followed by LPS challenge and measured after 4 to 6 hrs by Western blot analysis; type: cell-based; details: THP-1
Mus musculus [24] = test: Anti-colitis activity against DSS-induced C57BL/6 mouse model of subchronic relapsing colitis assessed as reduction in phosphorylated STAT3 level at 0.3 mg/kg, po administered once daily for 14 days starting from day 5 post DSS-challenge cotreated with 20 mg/kg berberine by Western blot analysis; type: functional, organism-based

Signal transducer and activator of transcription 3 (Homo sapiens), sequence (P40763 whole entry): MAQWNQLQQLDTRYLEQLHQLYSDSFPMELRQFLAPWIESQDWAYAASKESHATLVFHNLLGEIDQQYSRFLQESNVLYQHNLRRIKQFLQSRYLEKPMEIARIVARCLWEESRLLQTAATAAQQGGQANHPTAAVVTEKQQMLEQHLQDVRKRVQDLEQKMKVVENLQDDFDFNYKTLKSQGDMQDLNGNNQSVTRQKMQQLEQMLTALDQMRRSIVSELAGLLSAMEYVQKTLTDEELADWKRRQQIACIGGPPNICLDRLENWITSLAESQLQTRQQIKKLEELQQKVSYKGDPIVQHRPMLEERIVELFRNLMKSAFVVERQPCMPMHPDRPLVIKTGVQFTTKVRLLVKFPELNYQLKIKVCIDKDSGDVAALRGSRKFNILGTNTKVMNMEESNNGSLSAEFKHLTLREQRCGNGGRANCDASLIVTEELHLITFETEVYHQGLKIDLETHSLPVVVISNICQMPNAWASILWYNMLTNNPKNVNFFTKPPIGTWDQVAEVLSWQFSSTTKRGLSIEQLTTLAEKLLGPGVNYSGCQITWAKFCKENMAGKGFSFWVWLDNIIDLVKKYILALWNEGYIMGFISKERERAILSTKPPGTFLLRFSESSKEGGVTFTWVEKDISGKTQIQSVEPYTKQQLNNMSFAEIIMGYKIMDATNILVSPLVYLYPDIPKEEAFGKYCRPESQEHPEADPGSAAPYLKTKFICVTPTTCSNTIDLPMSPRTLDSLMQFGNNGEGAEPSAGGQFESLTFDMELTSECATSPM

CCCCCCCCc1ccc(CCC(N)(CO)CO)cc1.Cl [FINGOLIMOD HYDROCHLORIDE]
Non-Toxic: Activity [16] | Activity [17] | Activity [18] | Activity (Mus musculus [22])
inactive: Activity (Mus musculus [1]) | Activity (Mus musculus [4]) | Activity (Mus musculus [5]) | Activity (Mus musculus [6]) | Activity (Mus musculus [11]) | Activity (Mus musculus [12])
active: Activity (Mus musculus [2]) | Activity (Mus musculus [3]) | Activity (Mus musculus [7]) | Activity (Mus musculus [8]) | Activity (Mus musculus [9]) | Activity (Mus musculus [10]) | Activity (Mus musculus [13]) | Activity (Mus musculus [14]) | Activity (Mus musculus [15]) | Activity (Mus musculus [19]) | Activity (Mus musculus [20]) | Activity (Mus musculus [21]) | Activity (THP-1) | inhibition [23] | Activity (Mus musculus [24])

From ChEMBL document CHEMBL4619760, “Anti-inflammatory Efficacy of Combined Natural Alkaloid Berberine and S1PR Modulator Fingolimod at Low Doses in Ulcerative Colitis Preclinical Models” (J Nat Prod, 2020)
